According to ChEMBL document CHEMBL2440083 (J Med Chem, 2013):

Tests used:
Mu-type opioid receptor [1] = target: T1, Mu-type opioid receptor (Homo sapiens, UniProt P35372); assay: Agonist activity at human mu opioid receptor expressed in HEK293 cells assessed as inhibition of forskolin-stimulated cAMP accumulation by fluorescence assay; format: functional, cell-based
Mu-type opioid receptor [2] = target: T1, Mu-type opioid receptor; assay: Agonist activity at human mu opioid receptor expressed in HEK293 cells assessed as beta-arrestin recruitment by chemiluminescence assay; format: cell-based
Mus musculus [3] = assay: Analgesic effect in mouse at 6 mg/kg, sc after 30 mins by hot plate assay; format: functional; conditions: route subcutaneous
HEK293 [4] = assay: Selectivity ratio of EC50 for human mu opioid receptor expressed in HEK293 cells over EC50 for human delta opioid receptor expressed in HEK293 cells; format: cell-based
Mus musculus [5] = assay: Analgesic effect in sc dosed mouse by hot plate assay; format: functional
HEK293 [6] = assay: Selectivity ratio of EC50 for human mu opioid receptor expressed in HEK293 cells over EC50 for human kappa opioid receptor expressed in HEK293 cells; format: cell-based
[7] = target: T2, Sodium channel protein type 5 subunit alpha (Homo sapiens, UniProt Q14524); assay: Inhibition of human Nav 1.5 phasic ion channel expressed in HEK293 cells by whole-cell patch clamp technique; format: cell-based
T2 sequence (Q14524 whole entry): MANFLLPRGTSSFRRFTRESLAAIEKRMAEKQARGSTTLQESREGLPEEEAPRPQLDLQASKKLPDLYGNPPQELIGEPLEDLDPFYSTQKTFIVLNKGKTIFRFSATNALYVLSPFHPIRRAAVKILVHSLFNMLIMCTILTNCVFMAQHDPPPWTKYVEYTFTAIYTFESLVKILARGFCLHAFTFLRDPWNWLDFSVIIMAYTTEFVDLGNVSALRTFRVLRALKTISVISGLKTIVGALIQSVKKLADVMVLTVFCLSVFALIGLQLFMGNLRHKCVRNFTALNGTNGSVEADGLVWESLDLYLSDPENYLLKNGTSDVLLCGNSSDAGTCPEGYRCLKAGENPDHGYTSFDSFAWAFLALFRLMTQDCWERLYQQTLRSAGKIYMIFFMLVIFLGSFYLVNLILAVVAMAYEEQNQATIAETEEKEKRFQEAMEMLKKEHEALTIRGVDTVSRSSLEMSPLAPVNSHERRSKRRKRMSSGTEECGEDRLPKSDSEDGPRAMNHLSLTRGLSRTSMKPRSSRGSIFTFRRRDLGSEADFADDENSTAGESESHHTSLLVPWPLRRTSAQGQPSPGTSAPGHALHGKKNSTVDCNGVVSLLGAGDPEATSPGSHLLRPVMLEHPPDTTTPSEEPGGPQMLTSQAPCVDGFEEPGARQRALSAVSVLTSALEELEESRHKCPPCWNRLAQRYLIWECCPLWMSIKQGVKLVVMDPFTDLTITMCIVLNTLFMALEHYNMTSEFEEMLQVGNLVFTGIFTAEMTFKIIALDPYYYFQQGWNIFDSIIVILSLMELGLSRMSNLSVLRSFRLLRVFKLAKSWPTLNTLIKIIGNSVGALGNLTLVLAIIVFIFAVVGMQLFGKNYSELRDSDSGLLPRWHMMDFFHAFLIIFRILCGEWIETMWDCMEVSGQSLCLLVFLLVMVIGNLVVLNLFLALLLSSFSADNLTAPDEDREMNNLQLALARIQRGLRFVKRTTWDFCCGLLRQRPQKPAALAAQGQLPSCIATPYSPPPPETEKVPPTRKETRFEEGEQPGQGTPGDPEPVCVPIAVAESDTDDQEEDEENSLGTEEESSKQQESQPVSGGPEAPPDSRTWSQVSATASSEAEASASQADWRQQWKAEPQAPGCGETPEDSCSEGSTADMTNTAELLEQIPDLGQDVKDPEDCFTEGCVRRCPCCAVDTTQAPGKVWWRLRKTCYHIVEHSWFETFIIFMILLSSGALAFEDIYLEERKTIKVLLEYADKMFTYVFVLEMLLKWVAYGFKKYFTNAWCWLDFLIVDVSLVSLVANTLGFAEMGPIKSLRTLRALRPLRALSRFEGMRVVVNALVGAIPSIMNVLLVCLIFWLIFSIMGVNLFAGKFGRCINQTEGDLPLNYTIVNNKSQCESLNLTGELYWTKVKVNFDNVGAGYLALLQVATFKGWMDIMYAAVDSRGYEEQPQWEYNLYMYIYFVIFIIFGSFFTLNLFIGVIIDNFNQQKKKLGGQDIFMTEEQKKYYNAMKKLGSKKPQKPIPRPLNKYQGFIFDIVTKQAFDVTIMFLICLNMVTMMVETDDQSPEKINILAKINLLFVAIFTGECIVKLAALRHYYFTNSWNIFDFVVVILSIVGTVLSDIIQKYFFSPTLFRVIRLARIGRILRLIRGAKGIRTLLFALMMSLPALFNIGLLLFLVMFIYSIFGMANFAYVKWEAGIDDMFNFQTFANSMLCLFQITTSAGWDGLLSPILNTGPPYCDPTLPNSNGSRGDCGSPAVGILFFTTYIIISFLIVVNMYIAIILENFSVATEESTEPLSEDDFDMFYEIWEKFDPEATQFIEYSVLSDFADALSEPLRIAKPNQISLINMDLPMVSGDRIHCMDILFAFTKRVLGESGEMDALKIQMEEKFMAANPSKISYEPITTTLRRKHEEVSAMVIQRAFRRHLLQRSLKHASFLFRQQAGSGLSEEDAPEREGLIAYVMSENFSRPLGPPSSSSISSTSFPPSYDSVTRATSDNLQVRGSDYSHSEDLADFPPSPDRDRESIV

[8] = Cardiotoxicity in isolated rabbit left ventricular wedge model assessed as increase in QT interval at 1 uM; format: toxicity, tissue-based, Oryctolagus cuniculus, Heart left ventricle
[9] = target: Kappa-type opioid receptor (Homo sapiens, UniProt P41145); assay: Agonist activity at human kappa opioid receptor expressed in HEK293 cells assessed as inhibition of forskolin-stimulated cAMP accumulation by fluorescence assay; format: functional, cell-based
Kappa-type opioid receptor, sequence (P41145 whole entry): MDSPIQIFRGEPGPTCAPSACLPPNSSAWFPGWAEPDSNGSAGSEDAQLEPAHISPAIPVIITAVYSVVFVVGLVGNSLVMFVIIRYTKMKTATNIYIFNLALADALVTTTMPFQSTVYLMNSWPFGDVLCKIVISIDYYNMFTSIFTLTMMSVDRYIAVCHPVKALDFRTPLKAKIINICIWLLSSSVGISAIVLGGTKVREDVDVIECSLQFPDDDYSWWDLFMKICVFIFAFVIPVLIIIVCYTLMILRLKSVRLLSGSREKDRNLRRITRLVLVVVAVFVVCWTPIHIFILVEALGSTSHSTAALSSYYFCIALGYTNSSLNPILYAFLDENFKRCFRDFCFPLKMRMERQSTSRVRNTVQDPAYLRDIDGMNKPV

[10] = target: T2, Sodium channel protein type 5 subunit alpha; assay: Inhibition of human Nav 1.5 tonic ion channel expressed in HEK293 cells by whole-cell patch clamp technique; format: cell-based
[11] = Cardiotoxicity in isolated rabbit left ventricular wedge model assessed as increase in Tp-e interval at 1 uM; format: toxicity, tissue-based, Oryctolagus cuniculus, Heart left ventricle
Mus musculus [12] = assay: Toxicity in mouse fecal boli accumulation model assessed as fecal boli production at equianalgesic dose, sc after 4 hrs relative to morphine; format: organism-based; conditions: in vivo
[13] = target: Delta-type opioid receptor (Homo sapiens, UniProt P41143); assay: Agonist activity at human delta opioid receptor expressed in HEK293 cells assessed as inhibition of forskolin-stimulated cAMP accumulation by fluorescence assay; format: functional, cell-based
Delta-type opioid receptor, sequence (P41143 whole entry): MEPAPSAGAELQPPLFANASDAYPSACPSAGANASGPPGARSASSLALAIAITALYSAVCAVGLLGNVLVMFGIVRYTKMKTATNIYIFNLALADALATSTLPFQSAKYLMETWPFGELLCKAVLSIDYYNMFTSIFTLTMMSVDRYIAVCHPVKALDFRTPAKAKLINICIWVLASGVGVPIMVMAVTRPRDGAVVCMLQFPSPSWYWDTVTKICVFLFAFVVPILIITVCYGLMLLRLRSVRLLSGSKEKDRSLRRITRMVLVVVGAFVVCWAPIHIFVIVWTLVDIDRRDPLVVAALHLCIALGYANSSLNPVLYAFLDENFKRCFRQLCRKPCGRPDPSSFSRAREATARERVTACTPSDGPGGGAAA

[14] = target: Voltage-dependent L-type calcium channel subunit alpha-1C (Homo sapiens, UniProt Q13936); assay: Inhibition of human Cav 1.2 ion channel expressed in HEK293 cells by whole-cell patch clamp technique; format: cell-based
[15] = Cardiotoxicity in isolated rabbit left ventricular wedge model assessed as torsade de pointes score at 0.3 to 1 uM; format: toxicity, tissue-based, Oryctolagus cuniculus, Heart left ventricle
Mus musculus [16] = assay: Toxicity in mouse glass bead model assessed as retention time of colonic motility at 3 mg/kg, sc; format: organism-based, Colon; set-up: dose 3 mg/kg, route subcutaneous; conditions: in vivo
Mus musculus [17] = assay: Analgesic effect in mouse at 3 mg/kg, sc after 30 mins by hot plate assay; format: functional; conditions: route subcutaneous
[18] = target: Voltage-gated inwardly rectifying potassium channel KCNH2 (Homo sapiens, UniProt Q12809); assay: Inhibition of human ERG channel expressed in HEK293 cells by whole-cell patch clamp technique; format: cell-based
Voltage-gated inwardly rectifying potassium channel KCNH2, sequence (Q12809 whole entry): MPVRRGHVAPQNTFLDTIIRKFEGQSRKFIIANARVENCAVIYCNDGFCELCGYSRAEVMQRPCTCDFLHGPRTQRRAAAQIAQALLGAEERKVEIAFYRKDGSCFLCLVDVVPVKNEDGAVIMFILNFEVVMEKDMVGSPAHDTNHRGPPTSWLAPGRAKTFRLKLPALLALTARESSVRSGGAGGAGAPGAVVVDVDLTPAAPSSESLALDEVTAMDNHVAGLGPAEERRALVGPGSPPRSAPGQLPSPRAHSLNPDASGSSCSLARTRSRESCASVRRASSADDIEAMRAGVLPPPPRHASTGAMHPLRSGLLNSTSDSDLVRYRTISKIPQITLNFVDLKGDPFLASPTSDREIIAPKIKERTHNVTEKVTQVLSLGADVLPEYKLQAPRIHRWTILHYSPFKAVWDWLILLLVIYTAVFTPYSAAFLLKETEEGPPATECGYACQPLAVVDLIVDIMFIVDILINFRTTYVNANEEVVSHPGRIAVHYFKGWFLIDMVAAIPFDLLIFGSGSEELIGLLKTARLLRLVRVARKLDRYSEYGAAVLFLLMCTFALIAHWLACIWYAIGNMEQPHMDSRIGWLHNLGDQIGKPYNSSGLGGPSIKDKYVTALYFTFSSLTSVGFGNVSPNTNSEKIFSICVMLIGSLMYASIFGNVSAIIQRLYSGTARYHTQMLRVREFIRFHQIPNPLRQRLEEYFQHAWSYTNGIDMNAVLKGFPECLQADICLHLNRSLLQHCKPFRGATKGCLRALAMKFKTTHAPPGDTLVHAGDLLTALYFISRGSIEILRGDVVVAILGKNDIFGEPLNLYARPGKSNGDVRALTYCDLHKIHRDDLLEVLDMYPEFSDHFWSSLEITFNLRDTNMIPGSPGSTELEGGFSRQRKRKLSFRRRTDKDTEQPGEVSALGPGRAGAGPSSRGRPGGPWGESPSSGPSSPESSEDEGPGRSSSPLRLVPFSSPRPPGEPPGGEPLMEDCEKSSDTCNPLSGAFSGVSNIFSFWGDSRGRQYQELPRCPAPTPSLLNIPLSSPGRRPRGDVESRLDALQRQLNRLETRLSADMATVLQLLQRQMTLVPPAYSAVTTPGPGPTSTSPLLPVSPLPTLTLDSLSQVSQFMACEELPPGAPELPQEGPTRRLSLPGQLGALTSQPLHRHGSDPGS

Cynomolgus monkey [19] = assay: Cardiotoxicity in cynomolgus monkey assessed as PR interval; format: toxicity, organism-based, Macaca fascicularis; conditions: in vivo
Cynomolgus monkey [20] = assay: Cardiotoxicity in cynomolgus monkey assessed as QRS duration; format: toxicity, organism-based, Macaca fascicularis; conditions: in vivo
Cynomolgus monkey [21] = assay: Cardiotoxicity in cynomolgus monkey assessed as QTc interval; format: toxicity, organism-based, Macaca fascicularis; conditions: in vivo
[22] = Cardiotoxicity in isolated rabbit left ventricular wedge model assessed as increase in QT interval at 0.3 uM; format: toxicity, tissue-based, Oryctolagus cuniculus, Heart left ventricle
[23] = Cardiotoxicity in isolated rabbit left ventricular wedge model assessed as proarrhyhmic event; format: toxicity, tissue-based, Oryctolagus cuniculus, Heart left ventricle
Cynomolgus monkey [24] = assay: Cardiotoxicity in cynomolgus monkey assessed as QT interval; format: toxicity, organism-based, Macaca fascicularis; conditions: in vivo
[25] = Cardiotoxicity in isolated rabbit left ventricular wedge model assessed as torsade de pointes score up to 30 uM; format: toxicity, tissue-based, Oryctolagus cuniculus, Heart left ventricle

T1 sequence (P35372 whole entry): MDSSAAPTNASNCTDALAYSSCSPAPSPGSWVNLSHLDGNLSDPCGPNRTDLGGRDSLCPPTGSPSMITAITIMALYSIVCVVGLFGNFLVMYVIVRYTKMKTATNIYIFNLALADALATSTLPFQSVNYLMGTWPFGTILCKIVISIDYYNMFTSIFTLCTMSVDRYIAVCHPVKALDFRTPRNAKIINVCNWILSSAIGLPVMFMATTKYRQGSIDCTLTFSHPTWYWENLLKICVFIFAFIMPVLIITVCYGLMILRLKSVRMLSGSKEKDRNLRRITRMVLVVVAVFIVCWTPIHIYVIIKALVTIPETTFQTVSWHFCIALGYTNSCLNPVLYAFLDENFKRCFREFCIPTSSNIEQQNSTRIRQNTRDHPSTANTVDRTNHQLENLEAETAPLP

Row | SMILES | EC50 (Mu-type opioid receptor [1]) | EC50 (Mu-type opioid receptor [2]) | other results
1 | CCC1(CC)CC(CCNCc2ccccc2)(c2ccc(F)cc2)CCO1 (stereo not drawn) | 251 nM | 6310 nM | –
2 | c1ccc(CNCCC2(c3ccccn3)CCOC3(CCCC3)C2)cc1 (racemic) | 50.1 nM | 200 nM | –
3 | c1ccc(CNCC[C@@]2(c3ccccn3)CCOC3(CCCC3)C2)nc1 | 158 nM | – | –
4 | Fc1ccc(C2(CCNCc3ccccc3)CCOC3(CCCCC3)C2)cc1 (stereo not drawn) | 398 nM | 7940 nM | –
5 | Fc1ccc([C@@]2(CCNCc3ccccc3)CCOC3(CCCC3)C2)cc1 | 501 nM | 7940 nM | –
6 | Cc1cc(C)c(CNCC[C@@]2(c3ccccn3)CCOC3(CCCC3)C2)s1 | 25.1 nM | 631 nM | –
7 | C[C@H](NCC[C@@]1(c2ccc(F)cc2)CCOC2(CCCC2)C1)c1ccccc1 | 501 nM | – | –
8 | CC(C)(NCC[C@@]1(c2ccc(F)cc2)CCOC2(CCCC2)C1)c1ccccc1 | 3160 nM | – | –
9 | CN1CC[C@]23c4c5ccc(O)c4O[C@H]2[C@@H](O)C=C[C@H]3[C@H]1C5 [MORPHINE] | – | – | MPE (Mus musculus [3]): 69%
10 | c1ccc(CNCC[C@]2(c3ccccn3)CCOC3(CCCC3)C2)cc1 | 631 nM | 15800 nM | –
11 | CC[C@]1(C)CC(CCNCc2ccccc2O)(c2ccc(C)cc2)CCO1 (stereo partly drawn) | 501 nM | 2000 nM | –
12 | Cc1cc(CNCC[C@@]2(c3ccccn3)CCOC3(CCCC3)C2)sc1C | 5.01 nM | 501 nM | –
13 | c1ccc([C@]2(CCNCc3cccs3)CCOC3(CCCC3)C2)nc1 | 15.8 nM | 251 nM | Ratio EC50 (HEK293 [4]): 56; ED50 (Mus musculus [5]): 1.1 mg/kg; Ratio EC50 (HEK293 [6]): 71; IC50 [7]: 9 µM; Activity [8]: 40%; EC50 [9]: 900 nM; IC50 [10]: 20 µM; Activity [11]: 65%; fold change (FC) (Mus musculus [12]): 2; EC50 [13]: 750 nM; IC50 [14]: > 100 µM; Activity [15]: Toxic; Retention_time (Mus musculus [16]): 65 min; MPE (Mus musculus [17]): 79%; IC50 [18]: 2.3 µM
14 | Clc1cccc(CNCC[C@@]2(c3ccccn3)CCOC3(CCCC3)C2)c1 | 2.51 nM | 50.1 nM | –
15 | c1ccc([C@]2(CCNCc3cccnc3)CCOC3(CCCC3)C2)nc1 | 200 nM | – | –
16 | Cc1ccsc1CNCC[C@@]1(c2ccccn2)CCOC2(CCCC2)C1 | 6.31 nM | – | –
17 | Cc1ccc(C2(CCNCc3ccccc3O)CCOCC2)cc1 | 10000 nM | – | –
18 | Cc1csc(CNCC[C@@]2(c3ccccn3)CCOC3(CCCC3)C2)c1 | 5.01 nM | 398 nM | –

Row | SMILES | EC50 (Mu-type opioid receptor [1]) | EC50 (Mu-type opioid receptor [2]) | other results
19 | Cc1ccc(CNCC[C@@]2(c3ccccn3)CCOC3(CCCC3)C2)s1 | 15.8 nM | – | –
20 | C[C@@H](NCC[C@@]1(c2ccc(F)cc2)CCOC2(CCCC2)C1)c1ccccc1 | 1000 nM | – | –
21 | c1ccc([C@]2(CCNCC3CCCC3)CCOC3(CCCC3)C2)nc1 | 31.6 nM | – | –
22 | c1ccc([C@]2(CCNCc3ccc4ccccc4c3)CCOC3(CCCC3)C2)nc1 | 158 nM | 20000 nM | –
23 | c1ccc([C@]2(CCNCc3ccncn3)CCOC3(CCCC3)C2)nc1 | 794 nM | 2000 nM | –
24 | COc1ccsc1CNCC[C@@]1(c2ccccn2)CCOC2(CCCC2)C1 [OLICERIDINE] | – | – | Activity (Cynomolgus monkey [19]): Non-toxic; IC50 [7]: 4.7 µM; EC50 [9]: 1400 nM; Activity (Cynomolgus monkey [20]): Non-toxic; Activity (Cynomolgus monkey [21]): Non-toxic; IC50 [10]: 16.5 µM; Activity [11]: 7%; Activity [22]: 3%; Activity [23]: Non-toxic; Activity (Cynomolgus monkey [24]): Non-toxic; EC50 [13]: 2800 nM; IC50 [14]: 36 µM; Activity [25]: Non-toxic; IC50 [18]: 6.2 µM
25 | Fc1ccc(C2(CCNCc3ccccc3)CCOC3(CCCC3)C2)cc1 (racemic) | 79.4 nM | 631 nM | –
26 | c1ccc([C@]2(CCNCc3ccncc3)CCOC3(CCCC3)C2)nc1 | 1260 nM | – | –
27 | CC1(C)CC(CCNCc2ccccc2)(c2ccc(F)cc2)CCO1 (stereo not drawn) | 1580 nM | – | –
28 | c1ccc(CNCC[C@@]2(c3ccccn3)CCOC3(CCCC3)C2)cc1 | 12.6 nM | 158 nM | –
29 | Cc1ccc(CNCC[C@@]2(c3ccccn3)CCOC3(CCCC3)C2)o1 | 50.1 nM | 200 nM | –
30 | CC[C@]1(C)CC(CCNCc2ccccc2O)(c2ccc(F)cc2)CCO1 (stereo partly drawn) | 39.8 nM | 1580 nM | –
31 | Cc1cc(CNCC[C@@]2(c3ccccn3)CCOC3(CCCC3)C2)oc1C | 31.6 nM | 316 nM | –
32 | c1ccc([C@]2(CCNCc3ccsc3)CCOC3(CCCC3)C2)nc1 | 12.6 nM | 63.1 nM | –
33 | c1ccc([C@]2(CCNCc3cnccn3)CCOC3(CCCC3)C2)nc1 | 631 nM | – | –
34 | Clc1ccccc1CNCC[C@@]1(c2ccccn2)CCOC2(CCCC2)C1 | 10 nM | – | –
35 | Fc1ccc([C@]2(CCNCc3ccccc3)CCOC3(CCCC3)C2)cc1 | 31.6 nM | 398 nM | –
